Assay results from patent US20110275517A1, “SYNERGISTIC HERBICIDAL COMPOSITION CONTAINING A DICAMBA DERIVATIVE AND A […]” (DOW AGROSCIENCES LLC, priority 2010, published 2011).

Experiments:
Format in all cases: in vivo
Settings in all cases: rated after 14-21 d
[1] = system: ERICA = Conyza canadensis (horseweed/marestail); test: Greenhouse postemergence foliar herbicidal test on ERICA
Description: (§1) Seeds of the desired test plant species were planted in Sun Gro MetroMix 306 planting mixture, which typically has a pH of 6.0 to 6.8 and an organic matter content of about 30 percent, in plastic pots with a surface area of 103.2 square centimeters (cm^2). […] The plants were grown for 7-36 days (d) in a greenhouse with an approximate 16 hour (h) photoperiod which was maintained at about 28° C. during the day and 26° C. during the night. Nutrients and water were added on a regular basis and supplemental lighting was provided with overhead metal halide 1000-Watt lamps as necessary. The plants were employed for testing when they reached the second or third true leaf stage.
(§2) Treatments consisted of Banvel™ (dicamba dimethylamine salt) and Durango™ herbicide (glyphosate dimethylamine salt) alone and in combinations. An aliquot of
(§3) Banvel^TM (dicamba dimethylamine salt) was placed in 25 milliliter (mL) glass vials and diluted in a volume of water to obtain 1.5 milligrams (mg) active ingredient (ai)/mL concentrated solutions. Subsequent concentrations of Banvel™ (dicamba dimethylamine salt) were obtained by dilution with an equal volume of water. Spray solutions of Durango™ herbicide (glyphosate dimethylamine salt) were prepared following the aforementioned procedure. An aliquot of Durango™ herbicide (glyphosate dimethylamine salt) was placed in 25 milliter (mL) glass vials and mixed in a volume of 100:2 w/w water/ammonium sulfate (AMS) dilution solution to obtain 1.5 milligrams (mg) active ingredient (ai)/mL concentrated solutions.
(§4) Compound requirements are based upon a 12 mL application volume at a rate of 187 liters per hectare (L/ha). Spray solutions of the Banvel^TM (dicamba dimethylamine salt) and Durango™ herbicide (glyphosate dimethylamine salt) were prepared by adding the concentrated solutions to the appropriate amount of dilution solution to form 12 mL spray solution with active ingredients in combination. Banvel™ (dicamba dimethylamine salt) and Durango™ herbicide (glyphosate dimethylamine salt) alone and in combinations were applied to the foliage of plant material with an overhead Mandel track sprayer equipped with 8002E nozzles calibrated to deliver 187 L/ha over an application area of 0.503 square meters (m^2) at a spray height of 18 inches (43 cm) above average plant canopy. Control plants were sprayed in the same manner with the solvent blank.
(§5) The treated plants and control plants were placed in a greenhouse as described above and watered by sub-irrigation to prevent wash-off of the test compounds. After 14-21 d, the condition of the test plants as compared with that of the control plants was determined visually and scored on a scale of 0 to 100 percent where 0 corresponds to no injury and 100 corresponds to complete kill.
(§6) Colby's equation was used to determine the herbicidal effects expected from the mixtures (Colby, S. R. 1967. Calculation of the synergistic and antagonistic response of herbicide combinations. Weeds 15:20-22.).
(§7) The following equation was used to calculate the expected activity of mixtures containing two active ingredients, A and B:
(§8) A=observed efficacy of active ingredient A at the same concentration as used in the mixture;
(§9) B=observed efficacy of active ingredient B at the same concentration as used in the mixture.

[2] = system: CHEAL = Chenopodium album (Common lambsquarters/fat hen); test: Greenhouse postemergence foliar herbicidal test on CHEAL
Description: as §1, §2, §3, §4, §5, §6, §7, §8, §9

[3] = system: CHEAL GLY-RES (Glyphosate-resistant Chenopodium album); test: Greenhouse postemergence foliar herbicidal test on CHEAL GLY-RES
Description: as §1, §2, §3, §4, §5, §6, §7, §8, §9

[4] = system: COMBE = Commelina benghalensis (Dayflower); test: Greenhouse postemergence foliar herbicidal test on COMBE
Description: as §1, §2, §3, §4, §5, §6, §7, §8, §9

[5] = system: ERICA GLY-RES (Glyphosate-resistant Conyza canadensis); test: Greenhouse postemergence foliar herbicidal test on ERICA GLY-RES
Description: as §1, §2, §3, §4, §5, §6, §7, §8, §9

Structure (SMILES) | Herbicidal effect, observed (Ob), visual injury 0-100 ([1]; applied alone at 35 g/ha) | Herbicidal effect, observed (Ob), visual injury 0-100 ([1]; applied alone at 70 g/ha) | Herbicidal effect, observed (Ob), visual injury 0-100 ([1]; applied alone at 140 g/ha) | Herbicidal effect, observed (Ob), visual injury 0-100 ([1]; applied alone at 280 g/ha) | Herbicidal effect, observed (Ob), visual injury 0-100 ([2]; applied alone at 35 g/ha) | Herbicidal effect, observed (Ob), visual injury 0-100 ([2]; applied alone at 70 g/ha) | Herbicidal effect, observed (Ob), visual injury 0-100 ([2]; applied alone at 140 g/ha) | Herbicidal effect, observed (Ob), visual injury 0-100 ([2]; applied alone at 280 g/ha) | Herbicidal effect, observed (Ob), visual injury 0-100 ([3]; applied alone at 35 g/ha) | Herbicidal effect, observed (Ob), visual injury 0-100 ([3]; applied alone at 70 g/ha) | Herbicidal effect, observed (Ob), visual injury 0-100 ([3]; applied alone at 140 g/ha) | Herbicidal effect, observed (Ob), visual injury 0-100 ([3]; applied alone at 280 g/ha) | Herbicidal effect, observed (Ob), visual injury 0-100 ([4]; applied alone at 35 g/ha) | Herbicidal effect, observed (Ob), visual injury 0-100 ([4]; applied alone at 70 g/ha) | Herbicidal effect, observed (Ob), visual injury 0-100 ([4]; applied alone at 140 g/ha) | Herbicidal effect, observed (Ob), visual injury 0-100 ([4]; applied alone at 280 g/ha) | Herbicidal effect, observed (Ob), visual injury 0-100 ([5]; applied alone at 35 g/ha) | Herbicidal effect, observed (Ob), visual injury 0-100 ([5]; applied alone at 70 g/ha) | Herbicidal effect, observed (Ob), visual injury 0-100 ([5]; applied alone at 140 g/ha) | Herbicidal effect, observed (Ob), visual injury 0-100 ([5]; applied alone at 280 g/ha)
COc1c(Cl)ccc(Cl)c1C(=O)O [Dicamba, 3,6-dichloro-2-methoxybenzoic acid] | 62% | 81% | 93% | 97% | 34% | 40% | 52% | 61% | 33% | 48% | 64% | 83% | 18% | 25% | 43% | 42% | 62% | 83% | 95% | 97%
O=C(O)CNCP(=O)(O)O [Glyphosate + AMS, N-(phosphonomethyl)glycine] | 47% | 55% | 72% | 78% | 8% | 12% | 57% | 66% | 9% | 9% | 41% | 51% | 7% | 27% | 49% | 58% | 0% | 0% | 3% | 7%
